Experimental data published in patent US20240228489A1, “POSITIVE ALLOSTERIC MODULATORS OF THE MUSCARINIC ACETYLCHOLINE RECEPTOR M1” (Vanderbilt University, priority 2021, published 2024).

Key:
[1] = target: T1, human mAChR M1 (Homo sapiens, UniProt P11229); experiment: mAChR M1 cell-based functional assay (calcium mobilization), PAM mode: increase in the EC20 acetylcholine response
T1 sequence (P11229 1-460): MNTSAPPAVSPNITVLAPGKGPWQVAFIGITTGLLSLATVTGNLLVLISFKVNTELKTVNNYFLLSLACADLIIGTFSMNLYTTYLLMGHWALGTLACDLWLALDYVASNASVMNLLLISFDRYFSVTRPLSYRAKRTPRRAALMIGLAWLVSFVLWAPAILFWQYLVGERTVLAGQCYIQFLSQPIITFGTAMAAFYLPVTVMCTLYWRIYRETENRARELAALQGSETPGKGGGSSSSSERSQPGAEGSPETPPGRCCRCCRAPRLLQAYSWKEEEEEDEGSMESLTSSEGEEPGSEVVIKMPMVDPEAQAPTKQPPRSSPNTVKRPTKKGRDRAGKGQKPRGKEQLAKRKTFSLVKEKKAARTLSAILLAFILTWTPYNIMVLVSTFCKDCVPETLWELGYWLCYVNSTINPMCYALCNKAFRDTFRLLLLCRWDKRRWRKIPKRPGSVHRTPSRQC
Excerpt: (§1) Chinese hamster ovary (CHO-K1) cells stably expressing rat (r)M1 were purchased from the American Type Culture Collection and cultured according to their indicated protocol. CHO cells stably expressing human (h)M2, hM3, and hM5 were described previously (Levey, et al., 1991); hM1 and hM4 cDNAs were purchased from Missouri S&T cDNA Resource; rM4 cDNA was provided by T. I. Bonner (National Institutes of Health, Bethesda, MD). rM2 and rM3 were cloned from a rat brain cDNA library and sequence verified. hM1, rM2, rM3, hM4, and rM4 cDNAs were used to stably transfect CHO-K1 cells purchased from the American Type Culture Collection using Lipofectamine2000. To make stable rM2, hM2, rM3, hM4, and rM4 cell lines for use in calcium mobilization assays, these cells also were stably transfected with a chimeric G-protein (Gqi5) (provided by B. R. Conklin, University of California, San Francisco) using Lipofectamine 2000. rM1, hM1, rM3, hM3, rM5, and hM5 cells were grown in Ham's F-12 medium containing 10% heat-inactivated fetal bovine serum (FBS), 20 mM HEPES, and 50 μg/mL G418 sulfate. rM2-Gqi5, hM2-Gqi5, and hM4-Gqi5 cells were grown in the same medium also containing 500 μg/mL Hygromycin B. Stable rM4-Gqi5 cells were grown in DMEM containing 10% heat-inactivated FBS, 20 mM HEPES, 400 μg/mL G418 sulfate, and 500 μg/mL Hygromycin B.
(§2) For high throughput measurement of agonist-evoked increases in intracellular calcium, CHO-K1 cells stably expressing muscarinic receptors were plated in growth medium lacking G418 and hygromycin at 15,000 cells/20 μL/well in Greiner 384-well black-walled, tissue culture (TC)-treated, clear-bottom plates (VWR). Cells were incubated overnight at 37° C. and 5% C02. The next day, cells were washed using an ELX 405 (BioTek) with four washes (80 μL) of assay buffer then aspirated to 20 μL. Next, 20 μL of 16 μM Fluo-4/acetoxymethyl ester (Invitrogen, Carlsbad, CA) prepared as a 2.3 mM stock in DMSO and mixed in a 1:1 ratio with 10% (w/v) Pluronic F-127 and diluted in assay buffer was added to the wells and the cell plates were incubated for 50 min at 37° C. and 5% C02. Dye was removed by washing with the ELX 405 (four 80 μL washes of assay buffer) then aspirated to 20 μL. Compound master plates were formatted in an 11 point CRC format (1:3 dilutions) in 100% DMSO with a starting concentration of 10 mM using the BRAVO liquid handler (Agilent). Test compound CRCs were then transferred to daughter plates (240 nL) using the Echo acoustic plate reformatter (Labcyte, Sunnyvale, CA) and then diluted into assay buffer (40 μL) to a 2× stock using a Thermo Fisher Combi (Thermo Fisher Scientific, Waltham, MA).
Calcium flux was measured using the Functional Drug Screening System (FDSS) 6000 (Hamamatsu Corporation, Tokyo, Japan) as an increase in the fluorescent static ratio. Compounds were applied to cells (20 μL, 2×) using the automated system of the FDSS 6000 at 4 s into the 300 s protocol and the data were collected at 1 Hz. At 144 s into the 300 s protocol, 10 μL of an EC20 concentration of the muscarinic receptor agonist acetylcholine was added (5×), followed by the addition of 12 μL of an EC80 concentration of acetylcholine at the 230 s time point (5×). Agonist activity was analyzed as a concentration-dependent increase in calcium mobilization upon compound addition. Emax values for agonist activity are expressed relative to the maximum for acetylcholine. Positive allosteric modulator activity was analyzed as a concentration-dependent increase in the EC20 acetylcholine response. Antagonist activity was analyzed as a concentration-dependent decrease in the EC80 acetylcholine response. Concentration-response curves were generated using a four-parameter logistical equation in XLfit curve fitting software (IDBS, Bridgewater, NJ) for Excel (Microsoft, Redmond, WA) or Prism (GraphPad Software, Inc., San Diego, CA). […]

[2] = target: T1, human mAChR M1; experiment: mAChR M1 cell-based functional assay (calcium mobilization), agonist mode: compound alone, Emax relative to acetylcholine maximum; settings: for Agonist Activity Human M1 EC50 / EC50: human mAChR M1; for Emax: relative to the maximum for acetylcholine
Excerpt: as §1, §2
Calcium flux was measured using the Functional Drug Screening System (FDSS) 6000 (Hamamatsu Corporation, Tokyo, Japan) as an increase in the fluorescent static ratio. Compounds were applied to cells (20 μL, 2×) using the automated system of the FDSS 6000 at 4 s into the 300 s protocol and the data were collected at 1 Hz. At 144 s into the 300 s protocol, 10 μL of an EC20 concentration of the muscarinic receptor agonist acetylcholine was added (5×), followed by the addition of 12 μL of an EC80 concentration of acetylcholine at the 230 s time point (5×). Agonist activity was analyzed as a concentration-dependent increase in calcium mobilization upon compound addition. Emax values for agonist activity are expressed relative to the maximum for acetylcholine. Positive allosteric modulator activity was analyzed as a concentration-dependent increase in the EC20 acetylcholine response. Antagonist activity was analyzed as a concentration-dependent decrease in the EC80 acetylcholine response. Concentration-response curves were generated using a four-parameter logistical equation in XLfit curve fitting software (IDBS, Bridgewater, NJ) for Excel (Microsoft, Redmond, WA) or Prism (GraphPad Software, Inc., San Diego, CA).

| SMILES | EC50 [1] [nM] | Emax [1] [%] | Agonist Activity Human M1 EC50 [2] | Emax [2] [%] | EC50 [2] [nM] |
| --- | --- | --- | --- | --- | --- |
| [2H]C1([2H])c2ncccc2C(=O)N1Cc1ccc(-c2ccc3cn(C)nc3c2)cc1 [Compound 14, 6-(4-(2-methyl-2H-indazol-6-yl)benzyl)-6,7-dihydro-5H-pyrrolo[3,4-b]pyridin-5-one-7,7-d2] | 6800 | 77 | Inactive | 2 |  |
| [2H]C1([2H])c2ncccc2C(=O)N1Cc1ccc(-c2cc3cn(C)nc3cc2F)cc1 [Compound 15, 6-(4-(6-fluoro-2-methyl-2H-indazol-5-yl)benzyl)-6,7-dihydro-5H-pyrrolo[3,4-b]pyridin-5-one-7,7-d2] | 1770 | 51 | Inactive | 2 |  |
| [2H]C1([2H])c2ncccc2C(=O)N1Cc1ccc(-c2cc3cn(C)nc3cc2C)cc1 [Compound 16, 6-(4-(2,6-dimethyl-2H-indazol-5-yl)benzyl)-6,7-dihydro-5H-pyrrolo[3,4-b]pyridin-5-one-7,7-d2] | > 10000 | 55 | Inactive | 3 |  |
| [2H]C1([2H])c2ncccc2C(=O)N1Cc1ccc(-c2cc(C)c3nn(C)cc3c2)cc1 [Compound 17, 6-(4-(2,7-dimethyl-2H-indazol-5-yl)benzyl)-6,7-dihydro-5H-pyrrolo[3,4-b]pyridin-5-one-7,7-d2] | 853 | 79 | Inactive | 4 |  |
| [2H]C1([2H])c2ncccc2C(=O)N1Cc1ccc(-c2ccc3cncn3c2)cc1 [Compound 18, 6-(4-(imidazo[1,5-a]pyridin-6-yl)benzyl)-6,7-dihydro-5H-pyrrolo[3,4-b]pyridin-5-one-7,7-d2] | 4170 | 65 | Inactive | 2 |  |
| [2H]C1([2H])c2ncccc2C(=O)N1Cc1ccc(-c2ccn3ccnc3c2)cc1 [Compound 19, 6-(4-(imidazo[1,2-a]pyridin-7-yl)benzyl)-6,7-dihydro-5H-pyrrolo[3,4-b]pyridin-5-one-7,7-d2] | > 10000 | 58 | Inactive | 4 |  |
| [2H]C1([2H])c2ncccc2C(=O)N1Cc1ccc(-c2ccc3cn(C)nc3c2)cc1F [Compound 20, 6-(2-fluoro-4-(2-methyl-2H-indazol-6-yl)benzyl)-6,7-dihydro-5H-pyrrolo[3,4-b]pyridin-5-one-7,7-d2] | 3970 | 75 | Inactive | 3 |  |
| [2H]C1([2H])c2ncccc2C(=O)N1Cc1ccc(-c2cnc3nn(C)cc3c2)cc1F [Compound 21, 6-(2-fluoro-4-(2-methyl-2H-pyrazolo[3,4-b]pyridin-5-yl)benzyl)-6,7-dihydro-5H-pyrrolo[3,4-b]pyridin-5-one-7,7-d2] | 2420 | 76 | Inactive | 6 |  |
| [2H]C1([2H])c2ncccc2C(=O)N1Cc1ccc(-c2ccnc3nn(C)cc23)cc1F [Compound 22, 6-(2-fluoro-4-(2-methyl-2H-pyrazolo[3,4-b]pyridin-4-yl)benzyl)-6,7-dihydro-5H-pyrrolo[3,4-b]pyridin-5-one-7,7-d2] | 1940 | 74 | Inactive | 6 |  |
| [2H]C1([2H])c2ncccc2C(=O)N1Cc1ccc(-c2cccc3nn(C)cc23)cc1F [Compound 23, 6-(2-fluoro-4-(2-methyl-2H-indazol-4-yl)benzyl)-6,7-dihydro-5H-pyrrolo[3,4-b]pyridin-5-one-7,7-d2] | 1130 | 76 | Inactive | 7 |  |
| [2H]C1([2H])c2ncccc2C(=O)N1Cc1ccc(-c2cc3cn(C)nc3cc2F)cc1F [Compound 24, 6-(2-fluoro-4-(6-fluoro-2-methyl-2H-indazol-5-yl)benzyl)-6,7-dihydro-5H-pyrrolo[3,4-b]pyridin-5-one-7,7-d2] | 3600 | 69 | Inactive | 2 |  |
| [2H]C1([2H])c2ncccc2C(=O)N1Cc1ccc(-c2cc(C)c3nn(C)cc3c2)cc1F [Compound 25, 6-(4-(2,7-dimethyl-2H-indazol-5-yl)-2-fluorobenzyl)-6,7-dihydro-5H-pyrrolo[3,4-b]pyridin-5-one-7,7-d2] | 1070 | 76 | Inactive | 4 |  |
| [2H]C1([2H])c2ncccc2C(=O)N1Cc1ccc(-c2cc3cn(C)nc3cc2C)cc1F [Compound 26, 6-(4-(2,6-dimethyl-2H-indazol-5-yl)-2-fluorobenzyl)-6,7-dihydro-5H-pyrrolo[3,4-b]pyridin-5-one-7,7-d2] | 7580 | 58 | Inactive | 3 |  |
| [2H]C1([2H])c2ncccc2C(=O)N1Cc1c(F)cc(-c2ccc(C)c3nn(C)cc23)cc1F [Compound 27, 6-(4-(2,7-dimethyl-2H-indazol-4-yl)-2,6-difluorobenzyl)-6,7-dihydro-5H-pyrrolo[3,4-b]pyridin-5-one-7,7-d^2] | 542 | 84 | Inactive | 4 |  |
| [2H]C1([2H])c2ncccc2C(=O)N1Cc1ccc(-c2ccc(C)c3nn(C)cc23)cc1F [Compound 28, 6-(4-(2,7-dimethyl-2H-indazol-4-yl)-2-fluorobenzyl)-6,7-dihydro-5H-pyrrolo[3,4-b]pyridin-5-one-7,7-d2] | 535 | 80 |  | 28 | 6240 |
| [2H]C1([2H])c2ncccc2C(=O)N1Cc1ccc(-c2cccc3nn(C)cc23)cc1C [Compound 29, 6-(2-methyl-4-(2-methyl-2H-indazol-4-yl)benzyl)-6,7-dihydro-5H-pyrrolo[3,4-b]pyridin-5-one-7,7-d2] | 632 | 81 |  | 33 | 7860 |
